1 molecule from patent US12157745B2, “Heterocyclic systems and pharmaceutical compositions thereof” (University of Sharjah, priority 2018, dated 2024) can be followed below.

Common to all, as to assay type: cell-based
The test system of one assay is tubulin. The experiment in a line: Tubulin polymerization / microtubule formation (immunofluorescence and kit method). Conditions: in comparison to colchicine and taxol (positive controls); FIGS. 4A and 4B. As to the method: Cell synchronization and tubulin study: The antiproliferative effect of the compound it was tested on MCF7 cells which were synchronized at specific phases of the cell cycle. […] One way of inhibiting cell proliferation in G2/M phase is by altering equilibrium between polymerization and depolymerization of microtubule proteins which is required for active mitotic cell division.
An immunofluorescence method is used for detecting tubulin polymerization effect of compound 1t. The cells (5×10^4/well) were plated overnight on coverslips on a six well plate and treated with IC50 concentration of compound 1t, taxol and colchicine for 24 hours. After treatment, the cells were rinsed twice with PBS, fixed with 3.7% paraformaldehyde, and permeabilized with 0.1% Triton X-100. The cells were then blocked with 1% BSA in PBS for 1 hour before further incubation with anti-p-tubulin mouse monoclonal antibody overnight at 4° C. (Cell Signaling, San Francisco, CA). […]
Tubulin polymerization was measured in vitro using the Tubulin Polymerization Assay kit (Cytoskeleton, Denver, CO). […] The polymerization of tubulin was monitored as fluorescence at 37° C. for 60 min, and the reading speed was programmed at 1 cycle/min with excitation and emission wavelengths of 360 and 450 nm, respectively, using the Varioskan® Flash spectral scanning multimode reader (Thermo Fisher Scientific™). […]

The next assay has as its system MCF-7 cells. The experiment in a line: Cell cycle analysis (propidium iodide, flow cytometry). Conditions: after 16, 24, 48, and 72 hours of treatment. As to the method:
(§1) Apoptosis studies: The molecular effect of compound it was evaluated by investigating its apoptotic (FIG. 5) and cell cycle arresting potentials (FIGS. 6A and 6B). Compound it arrests the cells at G0/G1 phase in MCF-7 cells (>15%) with respect to control cells after 16, 24, 48, and 72 hours of treatment.
Cell cycle arresting potentials of compound it were analyzed by an already established protocol with minor modifications. In brief, 3×10^6 cells of MCF-7, SKBR3, and HCT116 were seeded and incubated overnight in a T75 cm^2 flask before treating with IC50 dose of compound it for […]. The cells which were devoid of any treatments served as controls for each group. After respective treatment hours, the cells were washed two times with PBS and fixed with ice cold ethanol (70%) overnight. The cells were then washed two times with cold PBS and 1×10^6 cells were then counted and incubated with 1 ml RNAase (100 μg/mL) for 30 min at 37° C. The cell pellet was further added with 200 μl of propidium iodide (50 μg/mL) and immediately analyzed by a flow cytometer (BD, Accuri C6).

The next assay has as its system SKBr3 cells. The assay is described as follows: Apoptosis study (western blot, caspase-3 activation). Conditions: multi-drug resistant breast cancer cells SKBr3. As to the method: as §1
(§2) The MCF-7, SKBR3 and HCT116 total cell lysate were prepared after 24 hours of treatment with compound it at IC50 and DIC50 doses by using 1× laemmli buffer. Total protein concentration was then estimated for each sample and 15-30 μg of protein lysate were loaded equally on 12% SDS-PAGE gel in order to detect various proteins expression levels. In short, the membrane was incubated with different primary antibodies (as mentioned in above section) (1:1000) overnight after blocking with 5% non-fat milk solution for 1 hour. The membrane was then re-probed with respective mouse/rabbit secondary antibodies (1:2000) for 1 h, and later developed by enhanced chemiluminescence (ECL) method by using a Chemidoc MP (BioRad, Germany).
The apoptotic level was measured using a kit method as per supplier's protocol. […] 2×10^6 cells were counted and re-suspended in 1 mL of binding buffer (1×). […] 400 μL of IX binding buffer was finally added to the cells and analyzed immediately by using by a flow cytometer (BD, Accuri C6).
For orientation: A western blot detects proteins with antibodies after separation by electrophoresis.

In a further assay the test system is C-Myc oncogenic protein. The experiment in a line: Western blot, C-Myc expression. As to conditions: all the tested cell lines. The method, then: Over-expression of this oncogene could result in tumor cell proliferation and migration and therefore its inhibition may halt tumor growth. Other pro-apoptotic (Bid, Bax, caspase-3 & -9) and anti-apoptotic (Bcl-xL) proteins were also modulated by compound it as evident from western blot analysis and as confirmed by annexin V study (FIG. 7).
as §2

In another assay the test system is p21. The assay is described as follows: Western blot, p21 expression. Conditions: HCT116 colon cancer cells. As to the method:
as §2

For another assay, the system named is H2AX. The experiment in a line: DNA damage study, H2AX phosphorylation (western blot). As to conditions: SKBr3 cells; IC50 and Double IC50 treatments. The text has this: DNA damage studies: One of the main properties of any efficient chemotherapeutic drug is to induce DNA damage in tumor cells either directly or indirectly by generating harmful DNA crosslinks, which can lead to apoptosis and impact the cell by disrupting gene function and/or impairing transcription, DNA replication, and cell proliferation. To gain additional knowledge of compound it's anticancer properties, its mechanism of action to induce DNA damage was studied in breast and colon cancer cells (FIG. 8). One of the critical post-translational modifications of chromatin is phosphorylation of multiple proteins involved in DNA damage pathway and one of the earliest events during DNA double strand break is the phosphorylation of Ser139 on the specialized histone called H2AX, which is then referred to as γ-H2AX.
The MCF-7, SKBR3 and HCT116 total cell lysate were prepared after 24 hours of treatment with compound it at IC50 and DIC50 doses by using 1× laemmli buffer. Total protein concentration was then estimated for each sample and 15-30 μg of protein lysate were loaded equally on 12% SDS-PAGE gel in order to detect various proteins expression levels. In short, the membrane was incubated with different primary antibodies (as mentioned in above section) (1:1000) overnight after blocking with 5% non-fat milk solution for 1 hour. […]

In a further assay the test system is ATR. The assay is described as follows: DNA damage study, ATR phosphorylation (western blot). As to conditions: also its downstream target p53. The method, then: (§3) However, recruitment of phosphatidylinositol-3-kinase (PI3K) family members to the site of DNA damage is the first step of DNA damage response mechanisms and the phosphorylation of ataxia telangiectasia-mutated (ATM) or ATM-Rad3-related (ATR) kinases often follows. […] Overall, compound it was able to induce DNA damage in an ATR-Chk2 dependent pathway in aggressive breast cancer phenotypes.
as §2

Another assay has as its system p-Chk2. The experiment in a line: DNA damage study, p-Chk2 expression (western blot). As to the method: as §3, §2

Regarding `CC1(C)[C@H]2COc3ccc4ccccc4c3[C@H]2N=C2SC(c3ccccc3)=C(c3ccccc3)N21` [Compound 1t], in the assay with tubulin, the “Inhibition of microtubule formation” value is “strong inhibition”. In the assay with MCF-7 cells, the “Cells arrested at G0/G1 phase with respect to control cells” value is recorded as above 15%. For the same molecule, the Apoptotic induction entry in the assay on SKBr3 cells is on record as “mitochondrial-mediated apoptotic induction with caspase-3 activation”. In addition, the C-Myc oncogenic protein entry in the assay on C-Myc oncogenic protein is “inhibited”. In the assay on p21, the “Expression of p21” value is “overexpressed”. Moreover, the H2AX phosphorylation result with H2AX is given as “induced H2AX phosphorylation”. In addition, the ATR phosphorylation result in the assay with ATR was “phosphorylates ATR”. The “Checkpoint kinase p-Chk2 expression” value in the assay with p-Chk2 was “elevated levels”.
